Results: patent US10767149B2, “Microfluidic device for three dimensional and compartmentalized coculture of neuronal and muscle cells, with functional force readout” (priority 2016, dated 2020)
“Also recorded” adds a separate entry of the source.

Key:
Format in all cases: cell-based, mouse
[1] = system: motor neurons in neurospheres innervating C2C12-derived muscle bundle; test: Glutamate stimulation of neurospheres in three-dimensional microfluidic neuron-muscle coculture
Procedure: . After reassembling an open-reservoir variant of the microfluidic device onto the muscle strip, the medium contained in all channels was flushed with a collagen-Matrigel mix. Neurospheres ˜300 to 400 μm in diameter were manually selected, resuspended with the same collagen-Matrigel mixture as above, and individually pipetted into the leftmost channel (FIG. 9d and FIG. 8) before the devices were placed in the incubator for matrix gelation, after which medium was supplied to both open reservoirs. The diameter of the neurospheres being greater than the inter-post distance ensured their restriction to the assign channel, resulting in a physical separation of ˜1 mm between the neurons and the muscles.
The first muscle contraction, indicative of the presence of functional NMJs, was recorded 80 s after glutamate administration and the twitching frequency rose during the subsequent 120 s to reach a steady value of ˜1.25 Hz (FIG. 10a). The delay in contraction and increase of the twitching frequency is likely due to the diffusion of the glutamate to the motor neurons embedded in the ECM since this lag is absent in adherent 2D cultures (T. Wada, M. Honda, I. Minami, N. Tooi, Y. Amagai, N. Nakatsuji, K. Aiba, PLoS One 2009, 4, DOI 10.1371/journal.pone.0006722) or three-dimensional constructs in suspension (Y. Morimoto, M. Kato-Negishi, H. Onoe, S. Takeuchi, Biomaterials 2013, 34, 9413).
All three-dimensional cell cultures in the microfluidic devices were carried out in a collagen:Matrigel hydrogel in a 4:1 ratio. Rat tail type I collagen (Corning) was mixed on ice with 10×PBS with phenol red (serving as pH indicator), 0.5 N NaOH and water for cell culture in order to yield a collagen concentration of 2 mg·ml^−1 at a pH of 7.4. Matrigel without growth factors (BD science) was thoroughly mixed to the collagen at 20% of the final gel mixture volume. The gel was then used within a few minutes following its preparation in order to avoid pre-polymerization.
C2C12 were trypsinized, counted and centrifuged for 5 min at 200 rcf. […]

[2] = system: NMJs between ChR2^H134R-HBG3-MN neurospheres and C2C12-derived muscle bundle
[3] = system: NMJs between ChR2^H134R-HBG3-MN and C2C12-derived myotubes

Row | Compound | steady muscle twitching frequency ([1]; 400 μM in medium) [Hz] | time to first muscle contraction after administration ([1]; 400 μM in medium, leftmost channel) [s] | time over which twitching frequency rose to steady value ([1]; 400 μM, after first contraction) [s] | effect on light-driven muscle contraction (force F) [2] | contractility of the myocytes after application (spontaneous twitches) [3] | effect on light-induced muscle contraction [3] | myocytes showing inhibition of light-induced muscle contraction [3]
1 | N[C@@H](CCC(=O)O)C(=O)O [Glutamate] | ~1.25 | 80 | 120 |  |  |  | 
2 | α-bungarotoxin |  |  |  | inhibited the contractions; also recorded: inhibited muscle contraction | still contractile; also recorded: did not alter the contractility of the myocytes | inhibited | 17/17
